Key:
Type in all cases: cell-based
MCF-7 [1] = assay: Cell proliferation assay, MCF-7; settings: Homo sapiens, MCF7; MCF-7 cell line, Table II; read-out: Activity (IC50, cell proliferation)
Procedure: The MCF-7 cell line, the MDR cell line, and the MCF-7/ADR cell line were used. Alamar Blue™ was used to quantitate cell viability.
The compounds listed in Table II were prepared using the procedures outlined in the above Examples.

UO-31 = assay: Cell proliferation assay, Renal Cancer UO-31; settings: Homo sapiens, read-out: GI50 or IC50, Renal Cancer UO-31
Procedure: (§1) The compounds listed in Table IV were prepared using the procedures outlined in the above Examples.

MES-SA/Dx5 = assay: Cell proliferation assay, Uterine MES-SA/Dx5; settings: Homo sapiens, read-out: GI50 or IC50, Uterine MES-SA/Dx5
Procedure: as §1

SK-MEL-2 = assay: Cell proliferation assay, Melanoma SK-MEL-2; settings: Homo sapiens, read-out: GI50 or IC50, Melanoma SK-MEL-2
Procedure: as §1

HCT-15 = assay: Cell proliferation assay, Colon Cancer HCT-15; settings: Homo sapiens, read-out: GI50 or IC50, Colon Cancer HCT-15
Procedure: (§2) The compounds listed in Table III were prepared using the procedures outlined in the above Examples.

SF-268 = assay: Cell proliferation assay, CNS Cancer SF-268; settings: Homo sapiens, read-out: GI50 or IC50, CNS Cancer SF-268
Procedure: as §2

NCI-H460 = assay: Cell proliferation assay, NSC Lung Cancer NCI-H460; settings: Homo sapiens, read-out: GI50 or IC50, NSC Lung Cancer NCI-H460
Procedure: as §2

OVCAR-3 = assay: Cell proliferation assay, Ovarian Cancer OVCAR-3; settings: Homo sapiens, read-out: GI50 or IC50, Ovarian Cancer OVCAR-3
Procedure: as §1

H69-AR (MDR) = assay: Cell proliferation assay, SC Lung Cancer H69-AR (MDR); settings: Homo sapiens, H69AR; read-out: GI50 or IC50, SC Lung Cancer H69-AR (MDR)
Procedure: as §2

HL-60 = assay: Cell proliferation assay, Leukemia HL-60; settings: Homo sapiens, read-out: GI50 or IC50, Leukemia HL-60
Procedure: as §2

HL60-MX1 (MDR) = assay: Cell proliferation assay, Leukemia HL60-MX1 (MDR); settings: read-out: GI50 or IC50, Leukemia HL60-MX1 (MDR)
Procedure: as §2

MCF-7 [2] = assay: Cell proliferation assay (panel), Breast Cancer MCF-7; settings: Homo sapiens, MCF7; read-out: GI50 or IC50, Breast Cancer MCF-7
Procedure: as §1

PC-3 = assay: Cell proliferation assay, Prostate Cancer PC-3; settings: Homo sapiens, read-out: GI50 or IC50, Prostate Cancer PC-3
Procedure: as §1

NCI-ADR = assay: Cell proliferation assay, Breast Cancer NCI-ADR; settings: Homo sapiens, NCI/ADR-RES; read-out: GI50 or IC50, Breast Cancer NCI-ADR
Procedure: as §1

Measured: IC50

COc1ncc(NC(=O)c2ccc(Cl)c(-c3ccc(-c4ccccc4)cc3)c2)cn1
< 1 µM: MCF-7 [1]

COc1ccc(NC(=O)c2ccc(Cl)c(-c3ccc(-c4cccc(O)c4)cc3)c2)cn1
< 1 µM: MCF-7 [1]

COc1ccc(NC(=O)c2ccc(Cl)c(-c3cccc(O)c3)c2)cn1
< 1 µM: MCF-7 [1]

COc1ccc(NC(=O)c2ccc(Cl)c(-c3ccc(-c4cccc(S(C)(=O)=O)c4)cc3)c2)cn1
< 1 µM: MCF-7 [1]

CCN(CC)CCNC(=O)c1ccc(Cl)c(-c2ccc(-c3ccccc3)cc2)c1
< 1 µM: MCF-7 [1]

COc1ccc(NC(=O)c2ccc(Cl)c(-c3cccc(C(N)=O)c3)c2)cn1
< 1 µM: MCF-7 [1]

O=C(NCCN1CCCC1)c1cccc(-c2ccc(-c3ccccc3)cc2)c1
1 to 10 µM: MCF-7 [1]

C=C[S+]([O-])c1ccc(NC(=O)c2ccc(Cl)c(-c3ccc(-c4ccccc4)cc3)c2)cn1 (centres unmarked)
1 to 10 µM: MCF-7 [1]

O=C(Nc1nnc(C(F)(F)F)s1)c1ccc(Cl)c(-c2ccc(-c3ccccc3)cc2)c1
1 to 10 µM: MCF-7 [1]

CS(=O)(=O)c1ccc(-c2cc(C(=O)NC3=NCCS3)ccc2Cl)cc1
1 to 10 µM: MCF-7 [1]

O=C(NCCc1c[nH]cn1)C1Cc2ccccc2CN1C(=O)c1ccc(Cl)c(-c2ccc(-c3ccccc3)cc2)c1 (centres unmarked)
> 10 µM: MCF-7 [1]

O=C(Nc1cccnc1Cl)c1ccc(Cl)c(-c2ccc(-c3ccccc3)cc2)c1
> 10 µM: MCF-7 [1]

CC(C)(C)OC(=O)NOC(=O)c1ccc(Cl)c(-c2ccc(-c3ccccc3)cc2)c1
> 10 µM: MCF-7 [1]

CCN(C(=O)c1ccc(Cl)c(-c2ccc(-c3ccccc3)cc2)c1)c1ccc2c(c1)OCO2
> 10 µM: MCF-7 [1]

O=C(Nc1cnccn1)c1ccc(Cl)c(-c2ccc(-c3ccccc3)cc2)c1 [Compound 5, 6″-Chloro-[1,1′;4′,1″]terphenyl-3″-carboxylic acid pyrazin-2-ylamide]
1 to 25 µM: SK-MEL-2
not listed: MCF-7 [1] | NCI-ADR
≤ 1 µM: all other assays above

COc1ccc(NC(=O)c2ccc(Cl)c(-c3ccc(-c4ccccc4)c(F)c3)c2)cn1 [Compound 6, 6″-Chloro-2′-fluoro-[1,1′;4′,1″]terphenyl-3″-carboxylic acid (6-methoxy-pyridin-3-yl)-amide]
1 to 25 µM: UO-31 | SK-MEL-2 | SF-268
not listed: MCF-7 [1] | HL-60
≤ 1 µM: all other assays above

COc1ccc(NC(=O)c2ccc(Cl)c(-c3ccc(-c4ccccc4)cc3)c2)cn1 [Compound 8, 6-Chloro-[1,1′;4′,1″]terphenyl-3-carboxylic acid (6-methoxy-pyridin-3-yl)-amide]
> 25 µM: MCF-7 [2]
1 to 25 µM: UO-31 | SK-MEL-2 | HL60-MX1 (MDR)
not listed: MCF-7 [1]
≤ 1 µM: all other assays above

O=C(Nc1ccc(Cl)nc1)c1ccc(Cl)c(-c2ccc(-c3ccccc3)cc2)c1 [Compound 13, 6-Chloro-[1,1′;4′,1″]terphenyl-3-carboxylic acid (6-chloro-pyridin-3-yl)-amide]
≤ 1 µM: HCT-15 | NCI-H460 | OVCAR-3 | MCF-7 [2] | PC-3
1 to 25 µM: UO-31 | SK-MEL-2 | SF-268

COc1ccc(NC(=O)c2ccc(Cl)c(-c3ccc(-c4ccncc4)cc3)c2)cn1 [Compound 17, 6-Chloro-4′-pyridin-4-yl-biphenyl-3-carboxylic acid (6-methoxy-pyridin-3-yl)-amide]
not listed: MCF-7 [1] | H69-AR (MDR) | HL-60
≤ 1 µM: all other assays above

Cc1ccc(NC(=O)c2ccc(Cl)c(-c3ccc(-c4ccccc4)cc3)c2)cc1 [Compound 20, 6-Chloro-[1,1′;4′,1″]terphenyl-3-carboxylic acid p-tolylamide]
≤ 1 µM: MCF-7 [2]
> 25 µM: SK-MEL-2 | HCT-15
1 to 25 µM: UO-31 | SF-268 | NCI-H460 | OVCAR-3 | PC-3

O=C(NCCN1CCCC1)c1ccc(Cl)c(-c2ccc(-c3ccccc3)cc2)c1 [Compound 26, 6-Chloro-[1,1′;4′,1″]terphenyl-3-carboxylic acid (2-pyrrolidin-1-yl-ethyl)-amide]
1 to 25 µM: UO-31 | SK-MEL-2 | HCT-15 | SF-268 | NCI-H460 | OVCAR-3 | MCF-7 [2] | PC-3

O=C(NCC(c1cccnc1)N1CCCC1)c1ccc(Cl)c(-c2ccc(-c3ccccc3)cc2)c1 (centres unmarked) [Compound 32, 6-Chloro-[1,1′;4′,1″]terphenyl-3-carboxylic acid (2-pyridin-3-yl-2-pyrrolidin-1-yl-ethyl)-amide]
≤ 1 µM: MES-SA/Dx5 | H69-AR (MDR) | MCF-7 [2]
1 to 25 µM: SF-268 | NCI-ADR | HL60-MX1 (MDR)

O=C(NC1=NCCS1)c1ccc(Cl)c(-c2ccc(-c3ccccc3)cc2)c1 [Compound 33, 6″-Chloro-[1,1′;4′,1″]terphenyl-3″-carboxylic acid (4,5-dihydro-thiazol-2-yl)-amide]
> 25 µM: HCT-15
not listed: MCF-7 [1] | MES-SA/Dx5 | H69-AR (MDR) | HL60-MX1 (MDR) | NCI-ADR
1 to 25 µM: all other assays above

O=C(Nc1ccc(N2CCNCC2)nc1)c1ccc(Cl)c(-c2ccc(-c3ccccc3)cc2)c1 [Compound 36, 6″-Chloro-[1,1′;4′,1″]terphenyl-3″-carboxylic acid (6-piperazin-1-yl-pyridin-3-yl)-amide]
≤ 1 µM: MES-SA/Dx5 | NCI-H460 | NCI-ADR | MCF-7 [2]

COc1ccc(NC(=O)c2ccc(C)c(-c3ccc(-c4ccccn4)cc3)c2)cn1 [Compound 40, 6-Methyl-4′-pyridin-2-yl-biphenyl-3-carboxylic acid (6-methoxy-pyridin-3-yl)-amide]
> 25 µM: SK-MEL-2
not listed: MCF-7 [1] | UO-31 | HL-60 | NCI-ADR
≤ 1 µM: all other assays above

COc1ccc(NC(=O)c2ccc(Cl)c(-c3cccc(-c4ccccc4)c3)c2)cn1 [Compound 68, 6-Chloro-[1,1′;3′,1″]terphenyl-3-carboxylic acid (6-methoxy-pyridin-3-yl)-amide]
≤ 1 µM: NCI-H460 | MCF-7 [2]

O=C(NC(CCc1ccccc1)C(=O)O)c1ccc(Cl)c(-c2cccc(-c3ccccc3)c2)c1 (centres unmarked) [Compound 223, 2-[(6-Chloro-[1,1′;3′,1″]terphenyl-3-carbonyl)-amino]-4-phenyl-butyric acid]
> 25 µM: SF-268 | MCF-7 [2]

O=C(NC(CC1CCCCC1)C(=O)O)c1ccc(Cl)c(-c2cccc(-c3ccccc3)c2)c1 (centres unmarked) [Compound 236, 2-[(6-Chloro-[1,1′;3′,1″]terphenyl-3-carbonyl)-amino]-3-cyclohexyl-propionic acid]
> 25 µM: SF-268 | MCF-7 [2]

COc1ccc(NC(=O)c2ccc(Cl)c(-c3ccc(-c4ccccc4)cc3)c2)cc1 [Compound 303, 6″-Chloro-[1,1′;4′,1″]terphenyl-3″-carboxylic acid (4-methoxy-phenyl)-amide]
1 to 25 µM: UO-31
> 25 µM: SK-MEL-2
≤ 1 µM: HCT-15 | SF-268 | NCI-H460 | OVCAR-3 | MCF-7 [2] | PC-3

O=C(Nc1ccc(F)nc1)c1ccc(Cl)c(-c2ccc(-c3ccccc3)cc2)c1 [Compound 338, 6-Chloro-[1,1′;4′,1″]terphenyl-3-carboxylic acid (6-fluoro-pyridin-3-yl)-amide]
≤ 1 µM: HCT-15 | SF-268 | NCI-H460 | OVCAR-3 | MCF-7 [2] | PC-3
1 to 25 µM: UO-31 | SK-MEL-2
